“And” between values parts separate entries of the source, which are not always exact repeats. Identical values can stand only once.
Experiments:
physchem = details: pH 7.4
From the text: (§1) The pKa values associated with ionisable centres identified within a given drug were used to calculate the fraction of drug ionised at pH 6.5. Drugs were then classified into groups as follows: drugs with > 50% unionised at pH 6.5 were classified as “Neutral”; drugs with > 50% ionised as mono −/di −/tri-protic acids or bases were classified as “Acid” or “Base”, respectively; “Zwitterions” were classified as drugs with > 50% ionised, with the major ionised species having no net charge; all other drugs were classified as amphoteric. […] LogD6.5 for neutral, amphoteric and zwitterion drugs were assumed to be equal to LogD7.4.

[1] = Caco-2 apparent permeability (Papp), apical to basolateral, pH 6.5-7.4 gradient, efflux inhibitor cocktail; details: human, Caco-2, pH 6.5
Description: The assay was performed using the apical to basolateral pH gradient format of pH 6.5 to pH 7.4. […] The efflux transporter inhibitor cocktail was used to minimise the effect of efflux transporters expressed in Caco-2 cells (e.g. P-glycoprotein, BCRP and MRP2) on the estimate of apical to basolateral Papp of substrates for such transporters.

[2] = cited from earlier work; for CLR: healthy adult subjects, overall weighted mean of literature values, absolute (not normalised), ref Supplementary Results Table S2.1; for Overall weighted mean CLR: healthy subjects, plasma and urine data from same subjects, normalised for subject weight and body surface area where necessary; for Overall weighted mean CLR / CLR Observed: ref Table S2.1; for CLR Observed: overall weighted mean of values obtained from a literature survey
[3] = Ionisation classification at pH 6.5 from pKa; assay type: physicochemical; details: predominant species (> 50%) at pH 6.5 from measured or calculated pKa
From the text: as §1

[4] = Observed clearance ratio and fraction reabsorbed (Freab, Freab′) calculated from CLR, fu,p and GFR; details: for Apparent Freab / Apparent Freab’: calculated from observed CLR, fu,p and GFR; for Freab: observed/apparent, 1 - CLR/(GFR x fu,p), GFR 120 mL/min
Description: The clearance ratio was calculated from clinical data using Eqs. […] For the remaining drugs the fraction reabsorbed (Freab) was calculated using Eq.
GFR values for healthy subjects may vary as a result of biological as well as inter-individual variation and also the method of measurement. […] Individual GFR values for subjects in clinical trials databases were generally not available.
In the proposed model, the nephron is represented as five compartments, namely the glomerulus and four tubular regions, as depicted in Fig. 1. The tubular compartments in the model, listed in anatomical order starting from the glomerulus are: the proximal tubule (PT), the loop of Henle (LoH), the distal tubule (DT) and the collecting duct (CD). […] The relationship between Freab′ and Freab is shown in Eq. (11). The predicted overall Freab′ was calculated from the predicted Freab′ in each (i) tubular region (Freab,i′), as shown in Eq. (12).

[5] = LogD6.5 estimated from LogD7.4 and pKa; details: octanol/buffer, pH 6.5
From the text: as §1

[6] = pKa, potentiometric AstraZeneca in-house assay (or ACD / BioByte); details: measured, potentiometric
From the text: as §1

[7] = Papp-Freab′ calibration of Caco-2 Papp with reference drugs and CLR prediction; set-up: species or system human; details: reference drugs; calibrated Caco-2 Papp after Hill equation fitting
From the text: To account for this and to allow the Caco-2 data in the present study to be transferable to other assay formats/laboratories, a Papp–Freab′ calibration method was explored by splitting the available Papp and Freab′ data into ‘reference’ and internal ‘validation’ subsets. […] The calibration approach is proposed as a pragmatic method to account for inter-assay/inter-laboratory differences; herein it is applied to the current dataset only, and not external data as intended for future studies.
In order to evaluate the application of Papp–Freab′ calibration (Eq. (17)), 11 drugs were selected as reference ‘calibrator’ drugs (Papp,ref) covering a representative range of Freab′ and Papp values (Table 5). The remaining 34 drugs were treated as an internal ‘validation’ set.

Structure (SMILES) | logD (physchem) | Papp A→B at 2 h [1] [nm/s] | CLR [2] | Overall weighted mean CLR [2] [mL/min] | CLR Observed [2] [mL/min] | Ionisation at pH 6.5 [3] | Apparent Freab [4] | Apparent Freab’ [4] | Freab [4] | logD [5] | logD (physchem; octanol/buffer) | pKa ([6]; pKa (base)) | Papp,ref,calibrated [7] | pKa ([6]; pKa (acid)) | Freab ([4]; listed as probenecid)
CCCN1CCCC[C@H]1C(=O)Nc1c(C)cccc1C [Ropivacaine] | 2.1 | 323 | 2.73 mL/min | 2.7 | 2.73 | Base | 0.547 | 0.552 | 0.55 | 1.27 |  |  |  |  | 
O=C(NCCN1CCOCC1)c1ccc(Cl)cc1 [Moclobemide] |  | 644 | 3.42 mL/min | 3.4 | 3.42 | Base | 0.943 | 0.951 | 0.94 | 1.34 | 1.6 |  |  |  | 
C[C@]12C=CC(=O)C=C1CC[C@@H]1[C@@H]2C(=O)C[C@@]2(C)[C@H]1CC[C@]2(O)C(=O)CO [Prednisone] |  | 373 | 37.9 mL/min | 37.9 | 37.87 | Neutral | 0.299 | 0.301 | 0.30 | 1.25 | 1.25 |  |  |  | 
CC(C)NCC(O)COc1ccc(CCOCC2CC2)cc1 (stereo not shown) [Betaxolol] |  | 200 | 49.6 mL/min | 49.6 | 49.64 | Base | 0.081 | 0.081 | 0.08 |  | 0.63 | 9.53 |  |  | 
NC(=O)c1ncn([C@@H]2O[C@H](CO)[C@@H](O)[C@H]2O)n1 [Ribavirin] |  | 15.5 | 109.9 mL/min and 110 mL/min | 109.9 | 109.94 | Neutral | 0.084 | 0.085 | 0.08 |  |  |  | 0.03 × 10^− 6 cm/s |  | 
CN(C)CCCN1c2ccccc2CCc2ccccc21 [Imipramine] |  |  |  |  |  |  |  |  |  |  |  | 9.17 |  |  | 
CCN(CC)CCCN(c1ccccc1)C1Cc2ccccc2C1 [Aprindine] |  | 318 | 1.28 mL/min | 1.3 | 1.28 | Base | 0.785 | 0.791 | 0.78 | 1.53 | 2.5 |  |  |  | 
CCCN(CCC)S(=O)(=O)c1ccc(C(=O)O)cc1 [Probenecid] |  | 845 | 0.50 mL/min | 0.5 | 0.50 | Acid | 0.955 | 0.963 | 0.96 | 0.76 |  |  |  | 3.36 | 0.955
N=C(N)c1ccc(CNC(=O)[C@@H]2CCN2C(=O)[C@H](NCC(=O)O)C2CCCCC2)cc1 [Melagatran] |  | 1.45 | 114 mL/min | 113.7 | 113.74 | Amphoteric | -0.021 | -0.021 |  |  |  |  |  | 2.12 | 

Reference: article PMC5074076, “Novel minimal physiologically-based model for the prediction of passive tubular reabsorption and renal excretion clearance” (European Journal of Pharmaceutical Sciences, 2016)
